# Counter-ions that a name gives are not always drawn.
# Assay: Log P (octanol-water partition coefficient) of flexibilizer agents
# Conditions: not given
row,Molecule,Log P
1,"2,3-dimethylpropanediol [FA2]",0.13

# Assay: physchem
# Conditions: not given
row,Molecule,logP
1,"OCCOCCO [FA10, 2,2′-oxydiethanol, reference compound]",-1.47
2,"OCCOc1ccccc1 [FA6, 2-phenoxyethanol]",1.1
3,"COC(=O)c1ccc(O)cc1 [FA9, Methyl-4-hydroxybenzoate sodium salt, reference compound]",-1.34
4,"OCCO [FA8, Ethylene glycol, reference compound]",-1.2
5,"CC(O)CCO (stereo not shown) [FA1, 1,3-butanediol]",-0.29

# Same assay, conditions: octanol/water
row,logP,Molecule
1,0.27,"OCCCCCO [FA3, 1,5-pentanediol]"
2,0.76,"OCCCCCCO [FA5, 1,6-hexanediol]"
3,0.69,"CCCCC(O)CO (stereo not shown) [FA4, 1,2-hexanediol]"
4,2.73,"CCCCC(CC)CO (stereo not shown) [FA7, 2-ethyl-1-hexanol]"
